In brackets after ≈: the same amount, converted by molar mass. Where a name gives a salt, the structure may show the parent alone. Read-outs that look alike come from different tables or passages of the source.

For orientation: IC50 means the concentration that inhibits the measured activity by half. The low end stands for inhibition by little substance, the high end for a need for much substance.

Experiment [1] has as its system BCG. Put plainly: microbe, parasite or virus in culture. It counts as cell-based, Mycobacterium bovis BCG. The note with it: for MIC: Mycobacterium tuberculosis variant bovis BCG, BCG, read-out: Liquid MIC.
In experiment [2] the test system is M. smegmatis. Put plainly: MIC determination on solid agar. The class given is cell-based, Mycobacterium smegmatis. The settings on record: read-out: Solid MIC. As for the experimental part: Drugs were diluted from a 10mM stock, mixed individually in 2 mLs of molten 7H10 agar and dispensed in square partitioned petri plates. Plates were incubated at 37°C and solid MIC was determined based on absence of colonies.

Experiment [3] has as its system M. smegmatis. The experiment in a line: microbe, parasite or virus in culture. The class given is cell-based, Mycobacterium smegmatis. The note with it: liquid medium.
For experiment [4], the system named is BCG. The class given is cell-based, Mycobacterium bovis BCG.
For experiment [5], the system named is M. smegmatis. The class given is cell-based, Mycobacterium smegmatis. The settings on record: 20 μM compound, 48 hr read, GFP fluorescence.
Experiment [6] concerns BCG. Put plainly: microbe, parasite or virus in culture. The class given is cell-based, Mycobacterium bovis BCG. The settings on record: for MIC: Mycobacterium tuberculosis variant bovis BCG.
Another experiment deals with M. tuberculosis H37Rv. The experiment in a line: Alamar Blue (resazurin) MIC assay. The class given is cell-based, Mycobacterium tuberculosis. The settings on record: Mycobacterium tuberculosis, liquid growth media. As for the experimental part:
To investigate the effects of repurposed compounds on growth of M. tuberculosis H37Rv using an Alamar Blue based MIC assay using the resazurin reagent. This assay was performed in 7H9 medium containing Middlebrook broth and 0.5% glycerol and supplemented with oleic acid, albumin, dextrose, and catalase. Clear- 96-well plates were inoculated with 100 μL of drug diluted with 90 μl of 7H9 medium and 10 μL DMSO. Serial 3-fold dilutions of each drug in 100 μL of 7H9 medium were prepared at various ranges. Growth controls containing no antibiotic and sterility controls without inoculation were also included. 200 μL of sterile deionized water was added to the outer perimeter wells to prevent evaporation during plate incubation. Plates were incubated plate at 37°C for 3–4 days. After incubation, the plates were removed and 10 μL of resazurin (0.02% w/v) was added to each well that contained bacteria. Assay plates were reincubated at 37°C for 24–48 hours and visually assessed for colour development. OD 570 nm readings were taken to provide further quantitation provide an interpretation of the dose response of the bacterium to repurposed compounds.

The next experiment relates to HepG2 cells. The experiment in a line: HepG2 cytotoxicity assay (CellTitre-Glo). The class given is cell-based. The note with it: Homo sapiens, HepG2, 48 hours. As for the experimental part:
Actively growing HepG2 cells were removed from a T-175 tissue culture flask with 5 mL of Eagle’s MEM containing 10% FBS/1%NEAA/1% Penicillin and Streptomycin) and mixed with gentle pipetting. […] The cell suspension was added to 250 mL of the same medium at a final density of […]. […] Plates were allowed to incubate at 37°C at a relative humidity of 80% and 5% CO2 for 48 hours. After incubation, the plates were allowed to equilibrate at room temperature for 30 mins before 25 μL of CellTitre-Glo (Promega) reagent was added to each well using a multichannel pipette. Plates were left at room temperature for 30 mins before relative luminescence was read using a BMG Labtech POLARstar Omega plate reader.

Another experiment concerns BCG over-expressing AroB. The experiment in a line: microbe, parasite or virus in culture. It counts as cell-based, Mycobacterium bovis BCG.
Where [7] appears, read: Mycolicibacterium smegmatis, M. smegmatis, 7H10 solid agar, absence of colonies.
Setting [8] is: read-out: Solid MIC, BCG, 7H10 solid agar, absence of colonies.
[9] abbreviates: read-out: Solid MIC, BCG, solid agar, values given in mM.
Where [10] appears, read: M. smegmatis, 7H10 solid agar, absence of colonies.

For the compound `Cc1cnc(C(=O)NCCc2ccc(S(=O)(=O)NC(=O)NC3CCCCC3)cc2)cn1` [Glipizide], in the experiment on BCG [1], the “Liquid MIC” value was found to be 191.10 µM and the MIC was 191 µM (≈ 85.1 µg/mL).
In the case of `CN1CCc2cccc3c2[C@H]1Cc1ccc(O)c(O)c1-3` [Apomorphine], the MIC with M. smegmatis [2] (setting [7]) came out at 625 µM (≈ 167 µg/mL); against M. smegmatis [3] it was 241.7 µM (≈ 64.6 µg/mL).
Regarding `CC[C@@H](CO)NCCN[C@@H](CC)CO` [ethambutol], the “% survival” value in the experiment on BCG [4] and in the experiment with M. smegmatis [5] was under 25% each time.
As to `CN1C2CCCC1CC(NC(=O)c1nn(C)c3ccccc13)C2` (stereo not shown) [Granisteron, Granisetron], the values for the MIC in the experiment with BCG [6] (setting [8]), in the experiment with BCG [6] (setting [9]) and in the experiment on BCG [1] were at least 0.5 mM, over 0.5 mM and 211 µM (≈ 65.8 µg/mL), respectively. Moreover, the “Liquid MIC” value with BCG [1] came out at 210.60 µM.
Turning to `O=c1c2ccccc2[se]n1-c1ccccc1` [Ebselen], the MIC against M. tuberculosis H37Rv worked out at 18.5 µM (≈ 5.08 µg/mL); with M. smegmatis [3] (Mycolicibacterium smegmatis), 10.3 µM (≈ 2.82 µg/mL). The IC50 in the experiment with HepG2 cells is 45 µM.
Take `CN(C)CC/C=C1/c2ccccc2COc2ccc(CC(=O)O)cc21` [Olopatadine]: the MIC with BCG [6] (setting [8]) was at least 0.5 mM; in the experiment on BCG [6] (setting [9]), over 0.5 mM; with BCG [1], 202 µM (≈ 68.3 µg/mL). The “Liquid MIC” value with BCG [1] was determined as 202.30 µM.
With `CC(C)(N)Cc1ccccc1` [Phenteramine, Phentermine], in the experiment with BCG [1], the MIC was 375 µM (≈ 56 µg/mL).
`CCCCCCCCNC(C)C(O)c1ccc(SC(C)C)cc1` (stereo not shown) [Sulocitidil]: the MIC with M. smegmatis [2] (setting [10]) worked out at 625 µM (≈ 211 µg/mL); against M. smegmatis [3], 87.22 µM (≈ 29.4 µg/mL).
For `NNC(=O)c1ccncc1` [isoniazid], the “% survival” value with BCG [4] and with M. smegmatis [5] was under 25% in each case.
For `CCCCCCCCCCCCCCCC[N+](C)(C)CCN(Cc1ccc(OC)cc1)c1ncccn1` [Thonzonium, Thonzonium bromide], the “Solid MIC relative to liquid MIC” value in the experiment with BCG [6] is reported as 5 fold. Moreover, the MIC in the experiment with BCG [6] (setting [8]) was about 0.005 mM; in the experiment with BCG [1], 0.16 µM.
`CCCCC(CC)CNC(=N)NC(=N)NCCCCCCNC(=N)NC(=N)NCC(CC)CCCC` (stereo not shown) [Alexidine] showed an MIC in the experiment on M. smegmatis [3] (Mycolicibacterium smegmatis) of 6.15 µM (≈ 3.13 µg/mL).
With `Fc1ccc(C(OCCN2CCN(CCCc3ccccc3)CC2)c2ccc(F)cc2)cc1` [GBR 12909, Vanoxerine], the MIC is 62.5 µM (≈ 28.2 µg/mL) in the experiment with M. smegmatis [2] (setting [7]); over 50 µM in the experiment with BCG over-expressing AroB (Mycobacterium tuberculosis variant bovis BCG, BCG, read-out: MIC upon over-expression of AroB); 0.0282 mM (≈ 12.7 µg/mL) in the experiment on BCG [6] (setting [8]); 26.6 µM (≈ 12 µg/mL) in the experiment with M. tuberculosis H37Rv; 20.5 µM (≈ 9.24 µg/mL) in the experiment with BCG [1]; 18.6 µM (≈ 8.38 µg/mL) against M. smegmatis [3] (Mycolicibacterium smegmatis). In addition, the “MIC in the absence of AroB over-expression, compared with wild-type BCG” value against BCG over-expressing AroB was “unchanged”. In the experiment on HepG2 cells, this compound showed an IC50 of 55 µM.
For `CCN(CC)CCOc1ccc(C(=C(Cl)c2ccccc2)c2ccccc2)cc1` [Clomiphene citrate], the MIC was 37.5 µM in the experiment on M. smegmatis [2] (setting [7]), 7.59 µM with M. tuberculosis H37Rv, 9.03 to 26.6 µM in the experiment with M. smegmatis [3] (Mycolicibacterium smegmatis) and 9.03 µM against M. smegmatis [3].
With `CC(NCCC(c1ccccc1)c1ccccc1)c1ccccc1` (stereo not shown) [Fendiline hydrochloride], the MIC in the experiment on M. smegmatis [2] (setting [7]) is 15.6 µM; against M. smegmatis [3] (Mycolicibacterium smegmatis) it was 77 to 828 µM; against M. smegmatis [3], 77.57 µM.
In the case of `C=C1c2c(Cl)ccc(O)c2C(=O)C2=C(O)[C@]3(O)C(=O)C(C(N)=O)=C(O)[C@@H](N(C)C)[C@@H]3[C@@H](O)[C@H]12` [Meclocyline sulfosalicylate, meclocycline sulfosalicylate], the figures for the MIC in the experiment with M. smegmatis [2] (setting [10]), with M. smegmatis [2] (Mycolicibacterium smegmatis) and against M. smegmatis [3] (Mycolicibacterium smegmatis) were 0.20 µM (≈ 0.0954 µg/mL), 0.2 µM (≈ 0.0954 µg/mL) and 0.1 µM (≈ 0.0477 µg/mL), respectively.
Take `N=C(N)c1ccc(OCCCCCOc2ccc(C(=N)N)cc2)cc1` [Pentamidine]: the MIC is 0.05 mM (≈ 17 µg/mL) in the experiment with BCG [6] (setting [8]), about 0.05 mM (≈ 17 µg/mL) in the experiment on BCG [6] (setting [9]), 10.5 µM (≈ 3.58 µg/mL) in the experiment with M. tuberculosis H37Rv and 3.23 µM (≈ 1.1 µg/mL) in the experiment on BCG [1]. Inhibition in the experiment with HepG2 cells was half-maximal at 3.5 µM (IC50).

(Values after paper PMC6414029, “Utilisation of the Prestwick Chemical Library to identify drugs that inhibit the growth of mycobacteria” (PLoS ONE, 2019).)
